In US9145415B2, “Nitrogen-containing heterocyclic compound or salt thereof” (FUJIFILM Corporation, priority 2012, dated 2015):
Read-outs that look alike come from different tables or passages of the source.

What was measured:
[1] = molecular target: T1, human FLT3 protein (FLT3 (WT)) (Homo sapiens, UniProt P36888); test: FLT3 inhibition test (FLT3 enzyme inhibition, time-resolved fluorescence of substrate peptide phosphorylation); type: biochemical
T1 construct: human FLT3 protein (intracellular region, 564 to 993 aa); GST; purchased Carna Biosciences; host or cells: baculovirus expression system
T1 sequence (P36888 564-993): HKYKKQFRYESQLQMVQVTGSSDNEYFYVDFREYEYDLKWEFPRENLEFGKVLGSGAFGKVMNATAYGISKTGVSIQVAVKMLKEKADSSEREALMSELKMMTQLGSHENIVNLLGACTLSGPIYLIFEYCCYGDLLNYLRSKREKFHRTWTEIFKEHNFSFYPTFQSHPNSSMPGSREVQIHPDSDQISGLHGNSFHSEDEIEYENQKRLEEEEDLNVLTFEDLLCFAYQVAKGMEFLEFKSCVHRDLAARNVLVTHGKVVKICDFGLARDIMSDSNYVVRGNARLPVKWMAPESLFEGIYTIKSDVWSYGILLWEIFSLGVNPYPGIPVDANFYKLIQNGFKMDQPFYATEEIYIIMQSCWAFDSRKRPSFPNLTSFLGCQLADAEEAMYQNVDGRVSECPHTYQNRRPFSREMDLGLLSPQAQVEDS
In short: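 Wild-type human FLT3 (1.2 μg) pre-incubated with compound 15 min at 25° C in 100 mM HEPES pH 7.5, 10 mM MgCl2, 25 mM NaCl, 1 mM DTT. Reaction started with substrate peptide and ATP (final 50 μM), run 30 min at 25° C; phosphorylation read by time-resolved fluorescence.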

[2] = tested on: Molm-13 cells; test: Leukemia cell proliferation inhibition test (ATPlite), Molm-13; type: cell-based; conditions: Homo sapiens, read-out: MOLM13 cell proliferation inhibition effect
In short: (§1)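 Proliferation inhibition is quantified from total cellular ATP, measured by luciferase luminescence, after cells grow with compound for 72 hours. The GI50 is the concentration giving half the signal of the 0.1% DMSO control, fitted to a sigmoid curve from duplicate points.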

[3] = tested on: MV4-11 cells; test: Leukemia cell proliferation inhibition test (ATPlite), MV4-11; type: cell-based; conditions: Homo sapiens, read-out: MV4-11 cell proliferation inhibition effect
In short: as §1

[4] = GST-fused human FLT3 (564 to 993 aa), ATP 50 μM, read-out: FLT3 (WT) enzyme inhibition activity
[5] = MOLM-13, 72 h, Molm-13, 72 hours culture, ATPlite, GI50 per method
[6] = MV4-11, 72 h, MV4-11, 72 hours culture, ATPlite, GI50 per method
[7] = FLT3 (WT), read-out: FLT3 (WT) enzyme inhibition activity

Compound	IC50 [1, 4]	IC50 [2, 5]	IC50 [3, 6]	IC50 [1, 7]	IC50 ([2]; MOLM-13, MOLM13 cell)	IC50 ([3]; MV4-11, MV4-11 cell)	IC50 ([1]; FLT3 (WT) enzyme inhibition activity, GST-fused human FLT3 (564 to 993 aa), ATP 50 μM)
C=CC(=O)NCC(=O)Nc1ccccc1CNC(=O)c1cnc(NCCc2ccncc2)nc1NCCC [Compound 2-29]	0.01 to 0.1 µM	0.1 to 1 µM	0.1 to 1 µM				
CCCNc1nc(Nc2cccc(F)c2)ncc1/C=C/c1cccc(NC(=O)[C@H](C)N(C)C(=O)/C=C/CN(C)C)c1 [Compound 7-27]	< 0.01 µM	< 0.01 µM	0.01 to 0.1 µM				
CCCNc1nc(Nc2ccc(C#N)cc2)ncc1C#CCCCNC(=O)CN(CC(C)C)C(=O)/C=C/CN(C)C [Compound 7-65]	< 0.01 µM	< 0.01 µM	< 0.01 µM				
CCCNc1nc(Nc2ccc(C(=O)N(C)C)cc2)ncc1C#CCCCNC(=O)CN(C)C(=O)/C=C/CN(C)C [Compound 7-16]	0.01 to 0.1 µM	< 0.01 µM	< 0.01 µM				
CNc1nc(Nc2cccc(F)c2)ncc1C#CCCCNC(=O)[C@@H]1CCCN1C(=O)/C=C/CN(C)C [Compound 7-77]	< 0.01 µM	< 0.01 µM	< 0.01 µM				
C=CC(=O)N(C)CC(=O)NC(CC)CCNC(=O)c1cnc(NCCc2ccncc2)nc1NCCC (stereo not drawn) [Compound 1-7]	< 0.01 µM	< 0.01 µM	0.01 to 0.1 µM				
CCCNc1nc(Nc2ccc(C(N)=O)cc2)ncc1C(=O)Nc1cccc(NC(=O)[C@H](C)N(C)C(=O)/C=C/CNC)c1 [Compound 4-2]	< 0.01 µM	< 0.01 µM	< 0.01 µM				
CCCNc1nc(Nc2cccc(C#N)c2)ncc1C(=O)Nc1cccc(NC(=O)[C@H](C)N(C)C(=O)/C=C/CN(C)C)c1 [Compound 6-3, (S,E)-2-((3-cyanophenyl)amino)-N-(3-(2-(4-(dimethylamino)-N-methyl-2-butenamido)propanamido)phenyl)-4-(propylamino)pyrimidine-5-carboxamide]	< 0.01 µM	0.01 to 0.1 µM	0.01 to 0.1 µM				
C=CC(=O)NCC(=O)NC(CC)CCNC(=O)c1cnc(NCCc2ccncc2)nc1NCCC (stereo not drawn) [Compound 1-6]	< 0.01 µM	0.01 to 0.1 µM	0.01 to 0.1 µM				
CCCNc1nc(Nc2ccc(C(N)=O)cc2)ncc1C(=O)Nc1ccc(NC(=O)/C=C/CN(C)C)cc1 [Compound 3-6]	< 0.01 µM	> 1 µM	0.1 to 1 µM				
C=CC(=O)NC(C)(C)C(=O)Nc1cccc(NC(=O)c2cnc(NCCc3ccncc3)nc2NCCC)c1 [Compound 2-4]	< 0.01 µM	0.01 to 0.1 µM	< 0.01 µM				
C=CC(=O)N(C)CC(=O)NCCCNC(=O)c1cnc(Nc2ccc(C(N)=O)cc2)nc1NCCC [Compound 5-2]	< 0.01 µM	0.01 to 0.1 µM	0.01 to 0.1 µM				
CCCNc1nc(NCCc2ccncc2)ncc1C(=O)NCCC(CC)NC(=O)CN(C)C(=O)/C=C/CN(C)C (stereo not drawn) [Compound 1-12]	< 0.01 µM	0.01 to 0.1 µM	< 0.01 µM				
C=CC(=O)NCC(=O)NCCCNC(=O)c1cnc(Nc2ccc3cnccc3c2)nc1NCCC [Compound 6-5]	< 0.01 µM	0.01 to 0.1 µM	0.01 to 0.1 µM				
CNc1nc(Nc2cccc(C#N)c2)ncc1C#CCCCNC(=O)[C@@H]1C[C@H](F)CN1C(=O)/C=C/CN(C)C [Compound 7-75]	< 0.01 µM	< 0.01 µM	< 0.01 µM				
CCCNc1nc(Nc2ccc(C(N)=O)cc2)ncc1C(=O)Nc1cccc(NC(=O)[C@H](C)N(C)C(=O)/C=C/CNCCF)c1 [Compound 4-10]		< 0.01 µM	< 0.01 µM				< 0.01 µM

More lines, main results first:

IC50 [1, 4]	IC50 [2, 5]	IC50 [3, 6]	IC50 [1, 7]	IC50 ([2]; MOLM-13, MOLM13 cell)	IC50 ([3]; MV4-11, MV4-11 cell)	Compound	IC50 ([1]; FLT3 (WT) enzyme inhibition activity, GST-fused human FLT3 (564 to 993 aa), ATP 50 μM)
< 0.01 µM	< 0.01 µM	< 0.01 µM				CCCNc1nc(Nc2cccc(F)c2)ncc1C#C[C@H]1C[C@@H](NC(=O)[C@H](C)N(C)C(=O)/C=C/CN(C)C)C1 [Compound 13-8, (E)-4-(Dimethylamino)-N—((S)-1-(((1S,3R)-3-((2-((3-fluorophenyl)amino)-4-(propylamino)pyrimidin-5-yl)ethynyl)cyclobutyl)amino)-1-oxopropan-2-yl)-N-methyl-2-butenamide]	
< 0.01 µM	0.01 to 0.1 µM	< 0.01 µM				CCCN(C)c1nc(Nc2ccc(C(=O)NC3CC3)cc2)ncc1C#CCCCNC(=O)[C@H](C)N(C)C(=O)/C=C/CN(C)C [Compound 9-8]	
< 0.01 µM	< 0.01 µM	< 0.01 µM				CCCNc1nc(Nc2ccc(C(N)=O)cc2)ncc1C#Cc1cccc(NC(=O)[C@H](C)N(C)C(=O)/C=C/CN(C)C)c1 [Compound 8-2, (S,E)-4-((5-((3-(2-(4-(Dimethylamino)-N-methyl-2-butenamido)propanamido)phenyl)ethynyl)-4-(propylamino)pyrimidin-2-yl)amino)benzamide]	
< 0.01 µM	< 0.01 µM	< 0.01 µM				COc1ccc(Nc2nc(Nc3ccc(F)cc3)ncc2C#CCCCNC(=O)CN(C)C(=O)/C=C/CN(C)C)cc1 [Compound 10-19]	
< 0.01 µM	< 0.01 µM	< 0.01 µM				COc1ccc(Nc2nc(Nc3cccc(F)c3)ncc2C#CCCCNC(=O)[C@H](C)N(C)C(=O)/C=C/CN(C)C)cc1 [Compound 10-3, (S,E)-4-(Dimethylamino)-N-(1-((5-(2-((3-fluorophenyl)amino)-4-((4-methoxyphenyl)amino)pyrimidin-5-yl)-4-pentyn-1-yl)amino)-1-oxopropan-2-yl)-N-methyl-2-butenamide]	
			< 0.01 µM	< 0.01 µM	< 0.01 µM	CCCNc1nc(Nc2cccc(-n3cccn3)c2)ncc1C#CCCCNC(=O)[C@H](C)N(C)C(=O)/C=C/CN(C)C [Compound 22-18]	
< 0.01 µM	< 0.01 µM	< 0.01 µM				CNc1nc(Nc2cccc(C#N)c2)ncc1C#C[C@@H]1CCC[C@H](NC(=O)[C@H](C)N(C)C(=O)/C=C/CN(C)C)C1 [Compound 21-1, (E)-N—((S)-1-(((1S,3R)-3-((2-((3-cyanophenyl)amino)-4-(methylamino)pyrimidin-5-yl)ethynyl)cyclohexyl)amino)-1-oxopropan-2-yl)-4-(dimethylamino)-N-methyl-2-butenamide]	
< 0.01 µM	< 0.01 µM	< 0.01 µM				CCCN(c1nc(Nc2ccnc(F)c2)ncc1C#CCCCNC(=O)[C@H](C)N(C)C(=O)/C=C/CN(C)C)C1CC1 [Compound 9-14]	
			< 0.01 µM	0.01 to 0.1 µM	0.01 to 0.1 µM	CNc1ncc(C#C[C@@H]2CCC[C@H](NC(=O)[C@H](C)N(C)C(=O)/C=C/CN(C)C)C2)c(NCc2cccc(F)c2)n1 [Compound 21-44]	
< 0.01 µM	< 0.01 µM	< 0.01 µM				CCCNc1nc(Nc2ccnc(F)c2)ncc1C#C[C@H]1C[C@@H](NC(=O)[C@H](C)N(C)C(=O)/C=C/CN(C)C)C1 (relative stereo) [Compound 14-4, (E)-4-(Dimethylamino)-N—((S)-1-(((1S*,3R*)-3-((2-((2-fluoropyridin-4-yl)amino)-4-(propylamino)pyrimidin-5-yl)ethynyl)cyclobutyl)amino)-1-oxopropan-2-yl)-N-methyl-2-butenamide]	
< 0.01 µM	< 0.01 µM	< 0.01 µM				COCCCNc1nc(Nc2ccnc(OC)c2)ncc1C#CCCCNC(=O)[C@H](C)N(C)C(=O)/C=C/CN(C)C [Compound 9-31]	
< 0.01 µM	< 0.01 µM	< 0.01 µM				CCCN(CCC)c1nc(Nc2ccc(C#N)cc2)ncc1C#CCCCNC(=O)[C@H](C)N(C)C(=O)/C=C/CN(C)C [Compound 10-16]	
			< 0.01 µM	< 0.01 µM	< 0.01 µM	CNc1ncc(C#CCCCNC(=O)[C@H](C)N(C)C(=O)/C=C/CN(C)C)c(Nc2ccc(OC)nc2)n1 [Compound 22-23]	
			< 0.01 µM	< 0.01 µM	< 0.01 µM	CCCNc1nc(Nc2cnc3c(cnn3C)c2)ncc1C#CCCCNC(=O)[C@H](C)N(C)C(=O)/C=C/CN(C)C [Compound 22-27]	
< 0.01 µM	< 0.01 µM	< 0.01 µM				Cc1ccc(Nc2nc(Nc3ccc(C#N)cc3)ncc2C#CCCCNC(=O)[C@H](C)N(C)C(=O)/C=C/CN(C)C)cc1 [Compound 10-23]	
< 0.01 µM	0.01 to 0.1 µM	0.01 to 0.1 µM				CCCNc1nc(Nc2ccc(C#N)cc2)ncc1C#Cc1cccc(NC(=O)[C@H](C)N(C)C(=O)/C=C/CN(C)C)n1 [Compound 8-19]	
